Where two headings read alike, the source gives them in different places.

A short description of series [1]: log P determination by HPLC (reversed-phase C 18), EEC Directive 79/831 Annex V.A8. It counts as physicochemical. How it is done: The log P values given in the tables and Preparation Examples above are determined in accordance with EEC Directive 79/831 Annex V.A8 by HPLC (High Performance Liquid Chromatography) using a reversed-phase column (C 18). Temperature: 43° C. […]
Calibration was carried out using unbranched alkan-2-ones (having 3 to 16 carbon atoms) with known log P values (determination of the log P values by the retention times using linear interpolation between two successive […]).

In a further series the test system is Plutella xylostella. Put plainly: Plutella test (cabbage leaves, dip). It counts as in vivo. How it is done: [table] To produce a suitable preparation of active compound, 1 part by weight of active compound is mixed with the stated amounts of solvent and emulsifier, and the concentrate is diluted with emulsifier-containing water to the desired concentration. Cabbage leaves (Brassica oleracea) are treated by being dipped into the preparation of active compound of the desired concentration and are populated with caterpillars of the diamond back moth (Plutella xylostella) while the leaves are still moist. After the desired period of time, the kill in % is determined. 100% means that all caterpillars have been killed; 0% means that none of the caterpillars have been killed.

Setting [2] is: HPLC, pH 2.3, 43° C., read-out: log P (pH 2.3).
Setting [3] is: reversed-phase C18 HPLC column, pH 2.3, HPLC, pH 2.3, 43° C., read-out: log P (pH 2.3).

For the compound `CC(C)(C)OC(=O)N[C@H](CCC(=O)c1c(F)cccc1F)c1ccc(Br)cc1` [IV-2, tert-butyl (1R)-1-(4-bromophenyl)-4-(2,6-difluorophenyl)-4-oxobutylcarbamate], in series [1] (setting [2]), the chromatographic logP was 4.22. In the case of `C=C(c1ccccc1)N1C(=O)CC[C@@H]1c1ccc(-c2ccc(OC(F)(F)F)cc2)cc1` [XII-1, (5R)-1-(1-Phenylvinyl)-5-[4′-(trifluoromethoxy)-1,1′-biphenyl-4-yl]-2-pyrrolidinone], the chromatographic logP in series [1] (setting [3]) worked out at 4.35. For `CC1(C)OB(c2ccc([C@H]3CCC(c4c(F)cccc4F)=N3)cc2)OC1(C)C` [I-b-1, (2R)-5-(2,6-difluorophenyl)-2-[4-(4,4,5,5-tetramethyl-1,3,2-dioxaborolan-2-yl)phenyl]-3,4-dihydro-2H-pyrrole], the chromatographic logP in series [1] (reversed-phase C18 HPLC column, pH 7, HPLC, pH 7, read-out: log P (pH 7)) amounted to 4.47. Turning to `Fc1cccc(F)c1C1=N[C@@H](c2ccc(-c3ccc(SC(F)(F)F)cc3)cc2)CC1` [drawing 75], the “Kill rate in % after 6 d” value with Plutella xylostella (0.0128 ppm) is on record as 45%. In the case of `O=S(=O)(c1ccc(-c2ccc([C@H]3CCC(c4c(F)cccc4F)=N3)cc2)cc1)C(F)(F)F` [I-11, (2R)-5-(2,6-difluorophenyl)-2-{4′-[(trifluoromethyl)sulphonyl]-1,1′-biphenyl-4-yl}-3,4-dihydro-2H-pyrrole], the chromatographic logP in series [1] (setting [3]) is 3.92; in series [1] (reversed-phase C18 HPLC column, pH 2.3, pH not given, read-out: log p/m.p.: log P), 3.92.

For `N#Cc1ccc(-c2ccc([C@H]3CCC(c4c(F)cccc4F)=N3)cc2)cc1` [I-17], in series [1] (setting [3]), the chromatographic logP was determined as 2.85. On the same count and under the same terms, in the case of `C=CCNC(=O)CC[C@H](O)c1ccc(-c2ccc(OC(F)(F)F)cc2)cc1` [XVI-1, (4S)—N-Allyl-4-hydroxy-4-[4′-(trifluoromethoxy)-1,1′-biphenyl-4-yl]butanamide] it was 2.99.

For `Fc1cccc(F)c1C1=N[C@H](c2ccc(-c3ccc(OC(F)(F)F)cc3)cc2)CC1` [drawing 73], the “Kill rate in % after 6 d” value in the series with Plutella xylostella (1.6 ppm) was found to be 0%. As for `CC(C)(C)OC(=O)N1C(=O)CC[C@@H]1c1ccc(-c2ccc(C#N)cc2)cc1` [V-4], the chromatographic logP in series [1] (setting [3]) turned out to be 3.02. For `Fc1cccc(F)c1C1=N[C@@H](c2ccc(Br)cc2)CC1` [I-15, (2R)-2-(4-bromophenyl)-5-(2,6-difluorophenyl)-3,4-dihydro-2H-pyrrole], the chromatographic logP in series [1] (setting [3]) was found to be 2.74. Still for that read-out and setting: then `O=C1CC[C@H](c2ccc(Br)cc2)N1[C@H](CO)c1ccccc1` [X-2, (5R)-5-(4-Bromophenyl)-1-[(1S)-2-hydroxy-1-phenylethyl]-2-pyrrolidinone], with 2.58. Same read-out and setting: then `CC(C)(C)OC(=O)N1C(=O)CC[C@@H]1c1ccc(Br)cc1` [V-2, tert-butyl (2R)-2-(4-bromophenyl)-5-oxo-1-pyrrolidinecarboxylate], with 3.04; and `O=C1CC[C@@]2(c3ccc(-c4ccc(OC(F)(F)F)cc4)cc3)OC[C@H](c3ccccc3)N12` [IX-1, (3S,7aS)-3-Phenyl-7a-[4′-(trifluoromethoxy)-1,1′-biphenyl-4-yl]tetrahydropyrrolo-[2,1-b][1,3]oxazol-5(6H)-one], with 4.55.

For `O=C1CC[C@@]2(c3ccc(Br)cc3)OC[C@H](c3ccccc3)N12` [IX-2, (3S,7aS)-7a-(4-Bromophenyl)-3-phenyltetrahydropyrrolo[2,1-b][1,3],oxazol-5(6H)-one], the “log P (pH 2.3)” value in series [1] (HPLC, pH 2.3, 43° C.) is reported as “log P (pH 2.3) = 3.36 (purity 92.3%)”.

For the compound `CC(C)(C)OC(=O)N1C(=O)CC[C@@H]1c1ccc(-c2ccc(OC(F)(F)F)cc2)cc1` [V-1, tert-butyl (5R)-2-oxo-5-[4′-(trifluoromethoxy)-1,1′-biphenyl-4-yl]-1-pyrrolidine carboxylate], the chromatographic logP in series [1] (setting [2]) was 4.32. Consider `Oc1ccc(-c2ccc([C@H]3CCC(c4c(F)cccc4F)=N3)cc2)cc1` [I-9], for which the chromatographic logP in series [1] (setting [2]) came to 1.93. For `COC(=O)CCC(=O)c1ccc(-c2ccc(OC(F)(F)F)cc2)cc1` [VIII-a-1, Methyl-4-oxo-4-[4′-(trifluoromethoxy)-1,1′-biphenyl-4-yl]butanoate], the chromatographic logP in series [1] (setting [3]) came to 4.01. The same measure, in the same setting: in the case of `C=CCN1C(=O)CC[C@@H]1c1ccc(-c2ccc(OC(F)(F)F)cc2)cc1` [XVII-1, (5R)-1-Allyl-5-[4′-(trifluoromethoxy)-1,1′-biphenyl-4-yl]-2-pyrrolidinone] it was 3.88.

With `Fc1cccc(F)c1C1=NC(c2ccc(-c3ccc(OC(F)(F)F)cc3)cc2)CC1` (stereo not shown) [drawing 71], in the series with Plutella xylostella (0.01 ppm), the “Kill rate in % after 6 d” value came out at 0%. Turning to `O=C1CC[C@H](c2ccc(-c3ccc(OC(F)(F)F)cc3)cc2)N1` [VII-1, (5R)-5-[4′-(Trifluoromethoxy)-1,1′-biphenyl-4-yl]-2-pyrrolidinone], the chromatographic logP in series [1] (setting [3]) was found to be 2.95. In the case of `O=C1CC[C@H](c2ccc(-c3ccc(OC(F)(F)F)cc3)cc2)N1[C@H](CO)c1ccccc1` [X-1, (5R)-1-[(1S)-2-Hydroxy-1-phenylethyl]-5-[4′-(trifluoromethoxy)-1,1′-biphenyl-4-yl]-2-pyrrolidinone], the chromatographic logP in series [1] (setting [3]) is 3.8. The same measure, in the same setting: in the case of `O=C1CC[C@H](c2ccc(-c3ccc(OC(F)(F)F)cc3)cc2)N1[C@H](CCl)c1ccccc1` [XI-1, (5R)-1-[(1S)-2-Chloro-1-phenylethyl]-5-[4′-(trifluoromethoxy)-1,1′-biphenyl-4-yl]-2-pyrrolidinone] it was 4.78. With `O=C1CC[C@H](c2ccc(Br)cc2)N1` [VII-2, (5R)-5-(4-Bromophenyl)-2-pyrrolidinone], the chromatographic logP in series [1] (setting [3]) was determined as 3.54.

Consider `CC(C)(C)OC(=O)N[C@H](CCC(=O)c1c(F)cccc1F)c1ccc(-c2ccc(C#N)cc2)cc1` [IV-4], for which the chromatographic logP in series [1] (setting [2]) came out at 4.1. Same read-out and setting: in the case of `CC(C)(C)OC(=O)N[C@H](CCC(=O)c1c(F)cccc1F)c1ccc(-c2ccc(OC(F)(F)F)cc2)cc1` [IV-1, tert-butyl (1R)-4-(2,6-difluorophenyl)-4-oxo-1-[4′-(trifluoromethoxy)-1,1′-biphenyl-4-yl]butylcarbamate] it was 5.18.

For `C=C(c1ccccc1)N1C(=O)CC[C@@H]1c1ccc(Br)cc1` [XII-2, (5R)-5-(4-Bromophenyl)-1-(1-phenylvinyl)-2-pyrrolidinone], the chromatographic logP in series [1] (setting [3]) came out at 3.18. Same read-out and setting: then `O=C1CC[C@H](c2ccc(Br)cc2)N1[C@H](CCl)c1ccccc1` [XI-2, (5R)-5-(4-Bromophenyl)-1-[(1S)-2-chloro-1-phenylethyl]-2-pyrrolidinone], with 3.61; and `Fc1cccc(F)c1C1=N[C@@H](c2ccc(-c3ccc(OC(F)(F)F)cc3)cc2)CC1` [I-3, (2R)-5-(2,6-difluorophenyl)-2-[4′-(trifluoromethoxy)-1,1′-biphenyl-4-yl]-3,4-dihydro-2H-pyrrole], with 4.08. For the compound `C=CCNC(=O)CCC(=O)c1ccc(-c2ccc(OC(F)(F)F)cc2)cc1` [XV-1, N-Allyl-4-oxo-4-[4′-(trifluoromethoxy)-1,1′-biphenyl-4-yl]butanamide], the “log P (pH 2.3)” value in series [1] (HPLC, pH 2.3, 43° C.) is recorded as 3.42. Moreover, the chromatographic logP in series [1] (setting [3]) turned out to be 3.34. As to `Fc1cccc(F)c1C1=N[C@@H](c2ccc(-c3ccc(OC(F)(F)F)cc3)cc2)CC1` [drawing 72], the “Kill rate in % after 6 d” value in the series with Plutella xylostella (0.01 ppm) came out at 100%.

`Fc1cccc(F)c1C1=NC(c2ccc(-c3ccc(SC(F)(F)F)cc3)cc2)CC1` (stereo not shown) [drawing 74]: the “Kill rate in % after 6 d” value in the series with Plutella xylostella (0.0128 ppm) worked out at 10%. `Fc1cccc(F)c1C1=N[C@H](c2ccc(-c3ccc(SC(F)(F)F)cc3)cc2)CC1` [drawing 76]: the “Kill rate in % after 6 d” value in the series on Plutella xylostella (1.6 ppm) was found to be 5%.

For the origin of these results see US20090012144A1 (priority 2000, published 2009).
